Assay results as given in patent publication US4766151A, “Ethers and oxime ethers of alkylamino alcohols as medicaments and novel products, and processes for their preparation” (Laboratoires, P.O.S., priority 1982, dated 1988).
Where a name gives a salt, the structure may show the parent alone.

Legend:
[1] = molecular target: T1, isolated auricle of a guinea pig (Cavia porcellus, UniProt H0W3H1); experiment: pA2 measurement of beta-blocking activity on the isolated auricle of a guinea pig; assay type: cell-based; settings: inotropic
T1 construct: isolated auricle of a guinea pig; from tissue; host or cells: guinea pig isolated auricle (atrium)
Description: (§1) The PA2 is the co-logarithm of the concentration of antagonist in the presence of which it requires twice as much agonist as in its absence in order to achieve the same effect; see, on this subject: Calculation of the PAx, Technical Leaflet No. 16, J. Pharmacol. Paris 1971, 2, 3, 373-380. The PA2 was measured on the isolated auricle of a guinea pig and on the isolated trachea of a guinea pig. The product used by way of comparison is the following compound: [drawing 23]

[2] = molecular target: T2, isolated auricle of a guinea pig (Cavia porcellus); experiment: as above; assay type: cell-based; settings: chronotropic
T2 construct: isolated auricle of a guinea pig; from tissue; host or cells: guinea pig isolated auricle (atrium)
Description: as §1

[3] = molecular target: T3, isolated trachea of a guinea pig (Cavia porcellus, UniProt Q8K4Z4); experiment: pA2 measurement of beta-blocking activity on the isolated trachea of a guinea pig; assay type: cell-based
T3 construct: isolated trachea of a guinea pig; from tissue; host or cells: guinea pig isolated trachea
Description: as §1

[4] = molecular target: T4, isolated trachea of a guinea pig (Cavia porcellus); experiment: as above; assay type: cell-based
T4 construct: isolated trachea of a guinea pig; from tissue; host or cells: guinea pig isolated trachea
Description: as §1

[5] = prior art; cited from earlier work

T2 sequence (H0W3H1 1-470): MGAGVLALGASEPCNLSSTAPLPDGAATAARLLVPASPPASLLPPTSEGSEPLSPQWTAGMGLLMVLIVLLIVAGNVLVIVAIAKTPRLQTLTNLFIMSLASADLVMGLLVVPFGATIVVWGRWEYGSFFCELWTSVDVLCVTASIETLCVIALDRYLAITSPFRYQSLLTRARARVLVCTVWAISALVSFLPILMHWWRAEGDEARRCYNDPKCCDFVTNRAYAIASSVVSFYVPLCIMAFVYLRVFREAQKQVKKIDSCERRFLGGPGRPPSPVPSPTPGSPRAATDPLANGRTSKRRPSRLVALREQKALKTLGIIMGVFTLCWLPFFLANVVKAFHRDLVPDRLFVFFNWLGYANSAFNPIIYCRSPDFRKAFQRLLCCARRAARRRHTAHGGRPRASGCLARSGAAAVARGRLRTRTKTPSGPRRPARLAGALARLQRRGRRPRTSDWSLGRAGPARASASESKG
T1 sequence (H0W3H1 1-470): as above
T3 sequence (Q8K4Z4 whole entry): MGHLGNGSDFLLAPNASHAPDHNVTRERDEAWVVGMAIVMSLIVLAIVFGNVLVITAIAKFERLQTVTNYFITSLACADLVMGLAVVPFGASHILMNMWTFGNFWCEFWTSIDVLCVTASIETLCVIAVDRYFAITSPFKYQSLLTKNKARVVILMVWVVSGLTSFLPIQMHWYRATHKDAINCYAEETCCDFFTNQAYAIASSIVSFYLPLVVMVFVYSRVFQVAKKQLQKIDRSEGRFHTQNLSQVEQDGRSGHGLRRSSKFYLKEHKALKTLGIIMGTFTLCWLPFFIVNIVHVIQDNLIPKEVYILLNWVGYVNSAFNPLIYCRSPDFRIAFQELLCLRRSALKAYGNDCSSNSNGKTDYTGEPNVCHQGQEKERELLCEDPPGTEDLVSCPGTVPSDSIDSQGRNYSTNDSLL
T4 sequence (Q8K4Z4 whole entry): as above

Row | Structure (SMILES) | Kb [1] | Kb [2] | Trachea pA2 [3] | Kb [4] | undesirable secondary effects in treatment of glaucomas [5]
1 | CC(C)(C)NCC(O)CON=C(C1CC1)C1CC1 (stereo not drawn) [Compound No. 2, 1-N-tert.-Butylamino-3-(dicyclopropyl-ketoneoximino)-propan-2-ol] | 7.24 nM | 5.01 nM |  |  | 
2 | CC(C)(C)NCC(O)COCC1CC1 (stereo not drawn) [compound 3, 1-N-tert.-Butylamino-3-cyclopropylmethoxy-propan-2-ol] |  | 79.4 nM | 6.23 |  | 
3 | CC(=NOCC(O)CNC(C)(C)C)C1CC1 (stereo not drawn) [Compound No. 1, 1-N-tert.-Butylamino-3-(cyclopropyl-methylketoneoximino)-propan-2-ol] | 1 nM | 2 nM |  | 0.912 nM | 
4 | CC(C)(C)NC[C@H](O)COc1nsnc1N1CCOCC1 [timolol maleate] |  |  |  |  | bronchial disorders (asthma) or cardiovascular disorders (orthostatic hypotension and slowing down of the pulse rate)
5 | C=CC(C)(C)OCC(O)CNC(C)(C)C (stereo not drawn) [Comparison, reference compound] |  |  | 4.96 |  | 
